Results from patent US20240262832A1, “SMALL MOLECULE MODULATORS OF GLUCOCEREBROSIDASE ACTIVITY AND USES THEREOF” (Vanqua Bio, Inc., priority 2021, published 2024).

What follows are molecules tested against T1, GCase (Homo sapiens, UniProt P04062) (assay: activation of GCase in a live cell PFB assay in HELA cells).
T1 construct: endogenous in cells; host or cells: HeLa cells
T1 sequence (P04062 40-536): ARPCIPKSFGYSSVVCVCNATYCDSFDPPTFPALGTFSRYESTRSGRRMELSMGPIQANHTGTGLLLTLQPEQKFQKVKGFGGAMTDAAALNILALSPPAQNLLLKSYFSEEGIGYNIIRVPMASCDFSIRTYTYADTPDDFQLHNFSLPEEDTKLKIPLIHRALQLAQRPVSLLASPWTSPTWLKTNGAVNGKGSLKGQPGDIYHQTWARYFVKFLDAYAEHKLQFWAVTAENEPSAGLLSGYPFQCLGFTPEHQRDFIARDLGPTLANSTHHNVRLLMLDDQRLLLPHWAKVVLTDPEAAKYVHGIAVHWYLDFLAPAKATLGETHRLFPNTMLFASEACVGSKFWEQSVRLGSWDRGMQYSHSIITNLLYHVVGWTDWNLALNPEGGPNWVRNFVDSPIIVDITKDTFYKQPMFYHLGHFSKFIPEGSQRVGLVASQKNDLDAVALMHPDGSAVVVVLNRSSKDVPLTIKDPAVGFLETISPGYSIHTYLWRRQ
Type: cell-based

| Compound | EC50 |
| --- | --- |
| FC(F)Cn1ncc2ncc(N3CCC(COc4ccnc(C(F)(F)F)c4)CC3)nc21 [Compound 315, 1-(2,2-Difluoroethyl)-6-(4-(((2-(trifluoromethyl)pyridin-4-yl)oxy)methyl)piperidin-1-yl)-1H-pyrazolo[3,4-b]pyrazine] | < 10 µM |
| FC(F)Cn1ncc2ncc(N3CCC(COc4ccc(C(F)(F)F)nc4)CC3)nc21 [Compound 316, 1-(2,2-Difluoroethyl)-6-(4-(((6-(trifluoromethyl)pyridin-3-yl)oxy)methyl)piperidin-1-yl)-1H-pyrazolo[3,4-b]pyrazine] | < 10 µM |
| FC(F)Cn1ncc2ncc(N3CCC(COc4ccc(C(F)(F)F)cn4)CC3)nc21 [Compound 317, 1-(2,2-Difluoroethyl)-6-(4-(((5-(trifluoromethyl)pyridin-2-yl)oxy)methyl)piperidin-1-yl)-1H-pyrazolo[3,4-b]pyrazine] | 10 to 50 µM |
| O=C(c1ccc2cc[nH]c2c1)N1CCC(Oc2ccncc2C(F)(F)F)CC1 [Compound 318, (1H-Indol-6-yl)(4-((3-(trifluoromethyl)pyridin-4-yl)oxy)piperidin-1-yl)methanone] | 10 to 50 µM |
| O=C(c1ccc2cc[nH]c2c1)N1CCC(Oc2ccnc(C(F)(F)F)c2)CC1 [Compound 319, (1H-Indol-6-yl)(4-((2-(trifluoromethyl)pyridin-4-yl)oxy)piperidin-1-yl)methanone] | 10 to 50 µM |
| O=C(c1ccc2cc[nH]c2c1)N1CCC(Oc2ncccc2C(F)(F)F)CC1 [Compound 321, (1H-Indol-6-yl)(4-((3-(trifluoromethyl)pyridin-2-yl)oxy)piperidin-1-yl)methanone] | 10 to 50 µM |
| O=C(c1ccc2cc[nH]c2c1)N1CCC(Oc2cc(C(F)(F)F)ccn2)CC1 [Compound 322, (1H-Indol-6-yl)(4-((4-(trifluoromethyl)pyridin-2-yl)oxy)piperidin-1-yl)methanone] | 50 to 100 µM |
| FC(F)Cn1ncc2ncc(N3CCC(COc4cccnc4C(F)(F)F)CC3)nc21 [Compound 323, 3-({1-[1-(2,2-Difluoroethyl)-1H-pyrazolo[3,4-b]pyrazin-6-yl]piperidin-4-yl}methoxy)-2-(trifluoromethyl)pyridine] | < 10 µM |
| FC(F)Cn1ncc2ncc(N3CCC(COc4cc(C(F)(F)F)ccn4)CC3)nc21 [Compound 324, 2-({1-[1-(2,2-Difluoroethyl)-1H-pyrazolo[3,4-b]pyrazin-6-yl]piperidin-4-yl}methoxy)-4-(trifluoromethyl)pyridine] | 10 to 50 µM |
| FC(F)Cn1ncc2ncc(N3CCC(Oc4cc(C(F)(F)F)ccn4)CC3)nc21 [Compound 326, 1-(2,2-Difluoroethyl)-6-(4-((4-(trifluoromethyl)pyridin-2-yl)oxy)piperidin-1-yl)-1H-pyrazolo[3,4-b]pyrazine] | 10 to 50 µM |
| O=C(c1ccc2cc[nH]c2c1)N1CCC(Oc2cccc(C(F)(F)F)n2)CC1 [Compound 327, (1H-Indol-6-yl)(4-((6-(trifluoromethyl)pyridin-2-yl)oxy)piperidin-1-yl)methanone] | 10 to 50 µM |
| FC(F)Cn1ncc2ncc(N3CCC(COc4cccc(C(F)(F)F)n4)CC3)nc21 [Compound 328, 2-({1-[1-(2,2-Difluoroethyl)-1H-pyrazolo[3,4-b]pyrazin-6-yl]piperidin-4-yl}methoxy)-6-(trifluoromethyl)pyridine] | 10 to 50 µM |
| FC(F)Cn1ncc2ncc(N3CCC(OC4CN(c5cccnc5C(F)(F)F)C4)CC3)nc21 [Compound 329, 1-(2,2-Difluoroethyl)-6-(4-((1-(2-(trifluoromethyl)pyridin-3-yl)azetidin-3-yl)oxy)piperidin-1-yl)-1H-pyrazolo[3,4-b]pyrazine] | < 10 µM |
| N#Cc1cc(C(F)(F)F)cnc1OC1CCN(C(=O)c2ccc3cc[nH]c3c2)CC1 [Compound 332, 2-((1-(1H-Indole-6-carbonyl)piperidin-4-yl)oxy)-5-(trifluoromethyl)nicotinonitrile] | 10 to 50 µM |
| O=C(c1ccc2cc[nH]c2c1)N1CCC(Oc2ccc(C(F)(F)F)cn2)CC1 [Compound 333, (1H-Indol-6-yl)(4-((5-(trifluoromethyl)pyridin-2-yl)oxy)piperidin-1-yl)methanone] | 10 to 50 µM |
| O=C(Cc1csc(-c2ccccc2)n1)N1CCC(COCc2ccccc2)CC1 [Compound 335, 1-{4-[(Benzyloxy)methyl]piperidin-1-yl}-2-(2-phenyl-1,3-thiazol-4-yl)ethan-1-one] | 10 to 50 µM |
| O=C(Cc1csc(-c2ccccc2)n1)N1CCC(OCCc2ccccc2)CC1 [Compound 336, 2-(2-Phenyl-1,3-thiazol-4-yl)-1-[4-(2-phenylethoxy)piperidin-1-yl]ethan-1-one] | 10 to 50 µM |
| CCC(C)(C)C(=O)N1CCC(COc2cccc(C(F)(F)F)n2)CC1 [Compound 350] | 50 to 100 µM |
| CC(C)(C)CC(=O)N1CCC(COc2cccc(C(F)(F)F)n2)CC1 [Compound 351] | 10 to 50 µM |
| Cc1cccnc1OCC1CCN(C(=O)Cc2cn(C)c3ccccc23)CC1 [Compound 359] | 10 to 50 µM |
| Cc1cccnc1OCC1CCN(C(=O)C2(c3ccccc3)CCOCC2)CC1 [Compound 360] | 10 to 50 µM |
| CC(C)Sc1ccc(CC(=O)N2CCC(Oc3ncccc3C#N)CC2)cc1 [Compound 369] | 10 to 50 µM |
| N#Cc1cccnc1OC1CCN(C(=O)C2(c3ccc(Cl)cc3)CCCC2)CC1 [Compound 370] | < 10 µM |
| N#Cc1cccnc1OC1CCN(C(=O)C23CC4CC(CC(C4)C2)C3)CC1 [Compound 375] | 10 to 50 µM |

| Compound | EC50 |
| --- | --- |
| O=C(NCCc1ccccc1)N1CCC(Oc2ccc(C(F)(F)F)cn2)CC1 [Compound 379] | > 100 µM |
| O=C(N1CCC(Oc2ccc(C(F)(F)F)cn2)CC1)C1(c2ccccc2)CCOCC1 [Compound 381] | 10 to 50 µM |
| CC(C)Sc1ccc(CC(=O)N2CCC(Oc3ccc(C(F)(F)F)cn3)CC2)cc1 [Compound 383] | 10 to 50 µM |
| O=C(CCCc1ccccc1)N1CCC(Oc2ccc(C(F)(F)F)cn2)CC1 [Compound 386] | 10 to 50 µM |
| O=C(C(c1ccccc1)c1ccccc1)N1CCC(Oc2ccc(C(F)(F)F)cn2)CC1 [Compound 387] | 10 to 50 µM |
| CCOc1ccccc1C(=O)N1CCC(Oc2ccc(C(F)(F)F)cn2)CC1 [Compound 391] | 10 to 50 µM |
| O=C(Cc1csc(-c2ccccc2)n1)N1CCC(Oc2ccnc(C(F)(F)F)c2)CC1 [Compound 399, 2-(2-Phenyl-1,3-thiazol-4-yl)-1-(4-{[2-(trifluoromethyl)pyridin-4-yl]oxy}piperidin-1-yl)ethan-1-one] | 10 to 50 µM |
| O=C(Cc1csc(-c2ccccc2)n1)N1CCC(Oc2cccnc2C(F)(F)F)CC1 [Compound 400, 2-(2-Phenyl-1,3-thiazol-4-yl)-1-(4-{[2-(trifluoromethyl)pyridin-3-yl]oxy}piperidin-1-yl)ethan-1-one] | 10 to 50 µM |
| O=C(Cc1csc(-c2ccccc2)n1)N1CCC(Oc2ncccc2C(F)(F)F)CC1 [Compound 401, 2-(2-Phenyl-1,3-thiazol-4-yl)-1-(4-{[3-(trifluoromethyl)pyridin-2-yl]oxy}piperidin-1-yl)ethan-1-one] | 10 to 50 µM |
| O=C(Cc1csc(-c2ccccc2)n1)N1CCC(Oc2cccc(C(F)(F)F)n2)CC1 [Compound 402, 2-(2-Phenyl-1,3-thiazol-4-yl)-1-(4-{[6-(trifluoromethyl)pyridin-2-yl]oxy}piperidin-1-yl)ethan-1-one] | 10 to 50 µM |
| O=C(N1CCC(Oc2ccccc2)CC1)C1(c2ccccc2)CCCC1 [Compound 404, 4-Phenoxy-1-(1-phenylcyclopentanecarbonyl)piperidine] | 10 to 50 µM |
| O=C(c1ccc2c(c1)CCCC2)N1CCC(Oc2ccccc2)CC1 [Compound 407, 4-Phenoxy-1-(5,6,7,8-tetrahydronaphthalene-2-carbonyl)piperidine] | 10 to 50 µM |
| Cc1cccc2cc(C(=O)N3CCC(Oc4ccccc4)CC3)oc12 [Compound 409, 1-(7-Methyl-1-benzofuran-2-carbonyl)-4-phenoxypiperidine] | 10 to 50 µM |
| O=C(c1cnn(-c2ccccc2)n1)N1CCC(Oc2ccccc2)CC1 [Compound 410, 4-Phenoxy-1-(2-phenyl-2H-1,2,3-triazole-4-carbonyl)piperidine] | 10 to 50 µM |
| c1ccc(OC2CCN(c3cnc4ccccc4n3)CC2)cc1 [Compound 414, 2-(4-Phenoxypiperidin-1-yl)quinoxaline] | 10 to 50 µM |
| O=C(c1ccc2cc[nH]c2c1)N1CCC(OCc2ccccc2)CC1 [Compound 415, 6-[4-(Benzyloxy)piperidine-1-carbonyl]-1H-indole] | 50 to 100 µM |
| O=C(c1ccc2cc[nH]c2c1)N1CCC(COc2ccccc2)CC1 [Compound 416, 6-[4-(Phenoxymethyl)piperidine-1-carbonyl]-1H-indole] | 10 to 50 µM |
| c1ccc(COC2CCN(c3cnc4ccccc4n3)CC2)cc1 [Compound 417, 2-[4-(Benzyloxy)piperidin-1-yl]quinoxaline] | 10 to 50 µM |
| c1ccc(OCC2CCN(c3cnc4ccccc4n3)CC2)cc1 [Compound 418, 2-[4-(Phenoxymethyl)piperidin-1-yl]quinoxaline] | 10 to 50 µM |
| O=C(c1cn(CC2CCCCC2)nn1)N1CCC(OCc2ccccc2)CC1 [Compound 419] | > 100 µM |
| COc1ccc(OCC2CCN(C(=O)c3cccc(C#CC(C)(C)O)c3)CC2)cc1 [Compound 420] | 10 to 50 µM |
| COc1ccc(OCC2CCN(c3nc(C)ncc3Cl)CC2)cc1 [Compound 421] | 10 to 50 µM |
| COc1ccc(OCC2CCN(C(=O)COCC3CCCO3)CC2)cc1 (stereo not drawn) [Compound 422] | 10 to 50 µM |
| O=C(c1cnn[nH]1)N1CCC(COc2ccc3c(c2)CCC3)CC1 [Compound 423] | 50 to 100 µM |
